Assay results taken from US20260216204A1, “METHODS FOR TREATING LOWER RISK MYELODYSPLASTIC SYNDROME” (Constellation Pharmaceuticals, Inc., priority 2022, published 2026).

What was measured:
[1] = tested on: IL-10 release of primary MDS patient PBMCs stimulated with LPS; experiment: Cytokine release of LPS-stimulated primary MDS patient PBMCs (eight-point titration): IL-10; format: cell-based, human; details: 5 μM to 8.2 nM, normalized to DMSO only, n=7-10 donors, FIG. 3
Experimental: (§1) Primary MDS patient samples (cryopreserved peripheral blood mononuclear cells (PBMCs)) were purchased from Discovery Life Sciences. For sample selection, we chose patients with low blast count (ideally below 5%), excluded patients with multilineage dysplasia and (if available) checked blood parameters such as white blood cell count and disease staging notes in order to select patients that show LR-MDS characteristics. Freshly thawed PBMCs were seeded at 50 000 cells/well in a 96-well flat bottom plate. 0.001 μg/mL lipopolysaccharide (LPS-B5, Invivogen) were added to induce IL-6 production. […] After centrifugation, the supernatant of the cells was collected and IL-6 protein in the supernatant was quantified using Human IL-6 Kit (V-PLEX, Meso Scale Discovery). The assay plates were read on a Meso Sector S600. […] The half maximal inhibitory concentration (IC50) was calculated by logarithmic transformation of the compound concentrations and applying “log(inhibitor) vs. response—variable slope (four parameters)”—function. […] After centrifugation, the supernatant of the cells was collected and IFNγ, TNFα, IL-6, IL-8 or IL-10 protein in the supernatant was quantified using Proinflammatory Panel 1 Human Kit (IFNγ, TNFα, IL-6 and IL-10) or Human IL-8 Kit (both V-PLEX, Meso Scale Discovery). The assay plates were read on a Meso Sector S600. […]

[2] = tested on: IL-6 release of primary MDS patient PBMCs stimulated with LPS; experiment: Cytokine release of LPS-stimulated primary MDS patient PBMCs (eight-point titration): IL-6; format: cell-based, human; details: 5 μM to 8.2 nM, normalized to DMSO only, n=7-10 donors, FIG. 3
Experimental: as §1

[3] = tested on: TNFα release of primary MDS patient PBMCs stimulated with LPS; experiment: Cytokine release of LPS-stimulated primary MDS patient PBMCs (eight-point titration): TNFα; format: cell-based, human; details: 5 μM to 8.2 nM, normalized to DMSO only, n=7-10 donors, FIG. 3
Experimental: as §1

[4] = tested on: IL-6 release of primary MDS patient PBMCs stimulated with LPS; experiment: IL-6 release of LPS-stimulated primary MDS patient PBMCs, electrochemiluminescence immunoassay (nine-point titration); format: cell-based, human; details: n=2 donors, FIG. 1
Experimental: This study was performed to evaluate the anti-inflammatory activity of pelabresib on MDS patient cells from different donors. The NF-kB pathway is central in regulating cytokines such as TNF-α, IL-6, and IL-8 which are elevated in MDS patients and play role in the pathogenesis of myelodysplastic syndromes (Ref: e.g. doi: 10.1097/MD.0000000000015844). Primary MDS patient samples (cryopreserved peripheral blood mononuclear cells (PBMCs)) were purchased from Discovery Life Sciences. For sample selection, we chose patients with low blast count (ideally below 5%), excluded patients with multilineage dysplasia and (if available) checked blood parameters such as white blood cell count and disease staging notes in order to select patients that show LR-MDS characteristics. Freshly thawed PBMCs were seeded at 50 000 cells/well in a 96-well flat bottom plate. 0.001 μg/mL lipopolysaccharide (LPS-B5, Invivogen) were added to induce IL-6 production. […] After centrifugation, the supernatant of the cells was collected and IL-6 protein in the supernatant was quantified using Human IL-6 Kit (V-PLEX, Meso Scale Discovery). The assay plates were read on a Meso Sector S600. […] The half maximal inhibitory concentration (IC50) was calculated by logarithmic transformation of the compound concentrations and applying “log(inhibitor) vs. response—variable slope (four parameters)”—function.

[5] = tested on: IL-8 release of primary MDS patient PBMCs stimulated with LPS; experiment: Cytokine release of LPS-stimulated primary MDS patient PBMCs (eight-point titration): IL-8; format: cell-based, human; details: 5 μM to 8.2 nM, normalized to DMSO only, n=7-10 donors, FIG. 3
Experimental: as §1

[6] = tested on: erythrocyte progenitors in bone marrow biopsy; details: semi-quantitative CD71 IHC, baseline vs Week 24, 22 out of 37; cited from earlier work
[7] = tested on: CD34+ stem cells derived from LR-MDS donors; experiment: Erythropoiesis of hematopoietic stem cells (CD34+) isolated from MDS patient bone marrow, flow cytometry; format: cell-based, human; details: pelabresib monohydrate 500 nM to 31.25 nM tested; FIG. 2 at 250 nM with erythroid expansion supplement, day 7, n=2 donors
Description: Primary MDS patient samples (cryopreserved bone marrow mononuclear cells (BMMCs)) were purchased from Discovery Life Sciences. For sample selection, we chose patients with low blast count (ideally below 5%), excluded patients with multilineage dysplasia and (if available) checked blood parameters such as white blood cell count and disease staging notes in order to select patients that show LR-MDS characteristics. Hematopoietic stem cells (CD34+) were isolated with EasySep Human CD34+ selection Kit II (StemCell Technologies) using freshly thawed cells. Cells were seeded at 1000 cells/well (for erythropoiesis) or 2500 cells/well (for CC100 differentiation mix) in a 96-flat-well plate. Differentiation cocktails StemSpan™ Erythroid Expansion Supplement (for Erythropoieses) or StemSpan™ CC100 (differentiation mix) were added according to the manufacturer's instructions. A 5-point titration series of pelabresib monohydrate with concentrations ranging from 500 nM to 31.25 nM was tested in duplicate. “DMSO only” treated wells served as control and were also used to prepare flow cytometry controls (such as FMOs). […] On day 7 cells were analysed via flow cytometry. […] Among the viable cells the percentage of CD34+CD71+ (megakaryocyte-erythroid progenitors (MEP)) and percentage of CD34−CD71+ (pro-erythroblasts/erythroblasts (pro-EB/EB)) was determined and depicted in GraphPad Prism 8 per donor.

[8] = tested on: transfusion dependent MF patients; details: Arm 2, pelabresib in addition to ruxolitinib; cited from earlier work
[9] = tested on: inflammatory cytokine regulated by the NF-κB pathway; details: lymphoma and MF patients; cited from earlier work
[10] = tested on: CD34+ cells isolated from blood samples of healthy donors and MF patients; details: cited from earlier work
[11] = tested on: IFNγ release of primary MDS patient PBMCs stimulated with LPS; experiment: Cytokine release of LPS-stimulated primary MDS patient PBMCs (eight-point titration): IFNγ; format: cell-based, human; details: 5 μM to 8.2 nM, normalized to DMSO only, n=7-10 donors, FIG. 3
Experimental: as §1

advanced MF patients = details: cited from earlier work

## Cc1noc2c1-c1ccccc1C(c1ccc(Cl)cc1)=N[C@H]2CC(N)=O [pelabresib, 2-((4S)-6-(4-chlorophenyl)-1-methyl-4H-benzo[c]isoxazolo[4,5-e]azepin-4-yl)acetamide]
[1]
  release of IL-10: suppressed release
[2]
  release of IL-6: suppressed release
[3]
  release of TNFα: suppressed release
[4]; 5 μM to 3.3 nM, dose dependent
  IL-6 release in donor PBMCs: suppressed IL-6 release
[4]; Homo sapiens, PBMC, 0.001 μg/mL LPS, approx. 18 hours, normalized to DMSO only control
  IC50: 248 nM
[5]
  release of IL-8: suppressed release
[6]
  patients with an increase in erythrocyte progenitors: 59%
[7]
  differentiation of CD34+ stem cells towards erythropoiesis: enhanced the differentiation
[8]
  median duration of RBC-TI: 39 weeks
  transfusion dependent MF patients who achieved RBC-TI ≥12 weeks: 36%
[9]
  levels of inflammatory cytokine regulated by the NF-κB pathway: can decrease the levels
[10]; CD34+ cells from healthy donors and MF patients, cytokine cocktail
  erythrocyte maturation: promotes erythrocyte maturation
[10]; in the presence of ruxolitinib, dose-dependent
  suppressive effects of ruxolitinib on erythroid differentiation: rescued the suppressive effects
[11]
  release of IFNγ: suppressed release
Advanced MF patients; Arm 1, monotherapy
  median duration of RBC-TI: 44 weeks
  transfusion dependent relapsed/refractory MF patients who achieved RBC-TI ≥12 weeks: 21%
Advanced MF patients; monotherapy, 11 out of 19
  patients who achieved ≥1.5 g/dL increase in Hgb levels without transfusion: 57.9%
